Measured values from ChEMBL document CHEMBL4673385, “Discovery of Potent Inhibitors of Streptococcus mutans Biofilm with Antivirulence Activity” (ACS Med Chem Lett, 2021).
≈ marks a conversion by molar mass, not a printed value. Calls of active or inactive are those of the source. No rule for the calls is given here.

Key:
[1] = system: Streptococcus mutans; assay: Antibiofilm activity against Streptococcus mutans UA159 assessed as inhibition of biofilm formation by serial dilution method; assay type: functional, organism-based
[2] = Solubility of compound in water; assay type: physicochemical
[3] = system: Streptococcus mutans; assay: Bactericidal activity against Streptococcus mutans UA159 assessed as reduction in bacterial growth at 100 uM after 24 hrs; assay type: functional, organism-based
[4] = Streptococcus mutans, UA159, read-out: IC50

Row | IC50 [1, 4] | solubility ([2]; water, read-out: solubility) | IC50 [1] | solubility ([2]; buffer) | Compound | Activity [3]
1 | 196 µM | 5 µg/mL (≈ 13.3 µM) |  |  | CC(C)(C)OC(=O)NCc1ccccc1NC(=O)c1cccc2ccccc12 | inactive
2 | 71.4 µM | 25 µg/mL (≈ 73.5 µM) |  |  | COC(=O)c1ccccc1NC(=O)c1cc2cc([N+](=O)[O-])ccc2o1 | inactive
3 |  |  | Nd(Insoluble) | Insoluble | COC(=O)c1ccccc1NC(=O)c1cc2cc(OC)ccc2[nH]1 | inactive
4 |  |  | Nd(Insoluble) | Insoluble | COc1ccc2[nH]c(C(=O)Nc3ccccc3)cc2c1 | inactive
5 | 41.2 µM | 20 µg/mL (≈ 64.2 µM) |  |  | COC(=O)c1ccc(NC(=O)c2cc3ccccc3s2)cc1 | inactive
6 | 84.1 µM | 25 µg/mL (≈ 86.1 µM) |  |  | NC(=O)c1ccccc1NC(=O)c1ccc2ccccc2c1 | inactive
7 |  |  | Nd(Insoluble) | Insoluble | COC(=O)c1ccc(NC(=O)c2cc3cc([N+](=O)[O-])ccc3[nH]2)cc1 | inactive
8 | > 300 µM | < 5 µg/mL |  |  | COC(=O)c1cccc(NC(=O)c2cccc3ccccc23)c1 | inactive
9 | 45.6 µM | 25 µg/mL (≈ 84.4 µM) |  |  | NC(=O)c1ccc(NC(=O)c2cc3ccccc3s2)cc1 | inactive
